{"source": "patent US5194445A", "about": "“Ascorbic acid derivative” (Nippon Hypox Laboratories Incorporated, priority 1989, dated 1993)", "key": {"Rat Liver Microsome": {"system": "Rat Liver Microsome", "assay": "Activity to Inhibit Hyperoxidation of Lipid of Rat Liver Microsome (thiobarbituric acid method)", "type": "biochemical", "protocol": "Activity to Inhibit Hyperoxidation of Lipid of Rat Liver Microsome\nA rat liver microsome was prepared according to a conventional method, and suspended in 1.15% KCl to obtain a microsome suspension.\nThe above microsome suspension in an amount equivalent to 2 mg of a protein was added to a tris-HCl buffer (pH 7.4) to which NADPH, ADP and FeCl3 had been added such that the final concentrations were 0.2 mM of NADPH, 1 mM of ADP and 10 μM of FeCl3.\nA dimethylformamide (DMF) solution of each of test compounds in an amount of 10 μl or DMF in an amount of 10 μl was added such that the total amount of each of the mixtures was 1 ml, and then, the mixtures were kept at 37° C. for 20 minutes. In addition, the test compounds were added in such amounts that their final concentrations became 10^-5 M.\nThereafter, according to a thiobarbituric acid method, the above mixtures were measured for an amount of peroxide lipid formed. The inhibiting activities of the test compounds were compared with that of the group containing the solvent (DMF) alone, and the results were expressed as an inhibition ratio (%)."}, "Stability Test": {"assay": "Stability Test", "type": "physicochemical", "conditions": "room temperature, after 24 hours, tris-HCl buffer pH 9.0; read-out: residual content", "protocol": "A tris-HCI buffer having pH of 9.0 was added to each of alcohol solutions of the compounds (Ia2), (Ia3), (IA2) and 2-O-dodecyl ascorbic acid, which was a position isomer of the compound (IA2), in such a manner that the amount of the buffer was 100 times as large as that of each alcohol solution.\nThe test compounds in the solutions which were allowed to stand at room temperature were quantitatively determined with time to measure their stability."}, "[1]": {"system": "Ischemic Acute Renal Insufficiency", "assay": "Action on Ischemic Acute Renal Insufficiency", "type": "in vivo, male Wistar rats", "conditions": "intravenous, 72 hours after reperfusion", "protocol": "Action on Ischemic Acute Renal Insufficiency\nFour male Wistar rats (weight: about 200 g per rat) were used as one group for each test. Each of the rats was anesthetized with sodium pentobarbital, the right kidney was extirpated, and immediately thereafter, 100 IU/kg of heparin was intravenously administered to its tail. Eight minutes after the administration, the left renal artery was ligated with a suture, and 60 minutes after the ligation, and the renal artery was reperfused by unligating the suture to develop ischemic acute renal insufficiency in each of the rats.\nImmediately before the administration of sodium pentobarbital and 72 hours after the reperfusion, blood samples were taken from the tail artery of each rat, and the serums obtained by centrifugation of the sample bloods were respectively measured for a blood urea nitrogen (BUN) amount and a creatinine amount, indices for renal insufficiency, with an autoanalyzer (AU550, supplied by Olympus K.K.).\nIn addition, the test compound was suspended in a physiological saline containing 1% olive oil and 1% Tween 80, and the resultant suspension was intravenously administered to the tail of each rat 10 minutes before the administration of sodium pentobarbital or 10 minutes before the reperfusion such that the dose of the test compound was 10 mg/kg or 30 mg/kg."}, "CCl4 Liver Dysfunction": {"system": "CCl4 Liver Dysfunction", "assay": "Action on CCl4 Liver Dysfunction", "type": "in vivo, ICR male mice", "conditions": "oral", "protocol": "Action on CCl4 Liver Dysfunction\nFourteen and seventeen ICR male mice were used as one group for each test. Each of the mice was hypodermically administered in its dorsal portion with 10 ml/kg of a solution of 10% CCl4 in olive oil to develop acute hepatitis, and the serum obtained by centrifugation of a blood sample taken from each mouse 48 hours after the administration was measured on GOT (glutamic-oxaloacetic transaminase) activity and GPT (glutamic-pyruvictransaminase) activity with an autoanalyzer (AU550, supplied by Olympus K.K.).\nIn addition, the test compound was suspended in physiological saline containing 1% olive oil and 1% Tween 80, and the resultant suspension was orally administered three times in total, immediately after the CCl4 administration and in the morning and evening on the day thereafter, such that the dose of each test compound was 100 mg/kg/one time administration."}, "Mouse": {"system": "Mouse", "assay": "Acute Toxicity Test on Mouse", "type": "in vivo, Male 3-ICR mice", "conditions": "intravenous", "protocol": "Acute Toxicity Test on Mouse\nMale 3-ICR mice (10 weeks of age) were used. The compounds (Ia2), (Ia3) and (IA2) were intravenously administered to the mice in such a manner that the doses of each of the compounds were 30 mg/kg and 100 mg/kg. For one week after the administration, symptoms were observed."}, "[2]": {"system": "Ischemic Brain Model Mouse", "assay": "Action on Survival Rate of Ischemic Brain Model Mouse", "type": "in vivo, ICR male mice", "conditions": "oral, 100 mg/kg", "protocol": "Action on Survival Rate of Ischemic Brain Model Mouse\nThirteen to fifty-six ICR male mice were used as one group for each of test compounds. Each of the mice was anesthetized by intraperitoneal administration of sodium pentobarbital, the bilateral carotid arteries were exposed, a thread was put around the arteries, and the skin was sutured with one end of the thread outside the body.\nThree days after the suture of the skin, the bilateral carotid arteries were ligated for 3 minutes, and then reperfused to obtain ischemic brain model mice. And, a survival rate in each group 24 hours after the ligation-reperfusion of bilateral carotid arteries was determined.\nIn addition, each of the test compounds was suspended in a physiological saline containing 1% olive oil and 1% Tween 80, and the suspension was orally administered one hour before the ligation of the bilateral carotid arteries such that the amount of each test compound was 100 mg/kg."}, "[3]": {"system": "Ventricular Arrhythmia During Coronary Occlusion-Reperfusion in Rat Heart", "assay": "Activity to Inhibit Ventricular Arrhythmia During Coronary Occlusion-Reperfusion in Rat Heart", "type": "in vivo, male Wistar rats", "conditions": "for Total time of arrhythmia occurrence (second) (mean + S.E.): 10 minutes (600 seconds) observation", "protocol": "Activity to Inhibit Ventricular Arrhythmia During Coronary Occlusion-Reperfusion in Rat Heart\nFive to ten male Wistar rats (weight 230 to 460 g per rat) were used as one group for each of test compounds. Each of the rats was anesthetized with sodium pentobarbital, and electrocardiograms thereof were recorded with standard lead II.\nThe rats were subjected to thoracotomy under artificial respiration, and left coronary artery ramus anterior descendenses were ligated for 5 minutes and then perfused.\nIn addition, each of test compounds was suspended in a physiological saline containing 1% olive oil and 1% Tween 80, and the resultant suspensions were administered into femoral veins 2 minutes before the coronary occlusion, or orally administered 1 hour before the coronary occlusion, such that the amounts of said compounds were as predetermined.\nWhen a left coronary artery ramus anterior descendence is occluded for 5 minutes and then reperfused, ventricular arrhythmia typified by ventricular tachycardia (VT) and ventricular fibrillation (VF) occurs."}, "[4]": {"conditions": "10^-5 M, pH 7.4, 37° C., 20 minutes, versus solvent (DMF) alone; 10 µM"}, "[5]": {"conditions": "10^-5 M, pH 7.4, 37° C., 20 minutes, versus solvent (DMF) alone, 10 µM"}, "[6]": {"conditions": "100 mg/kg/one time, three times, serum 48 hours after CCl4"}}}
{"smiles": "CCCCCCCCCCCCCCCCCCOC1=C(O)C(=O)O[C@@H]1[C@@H](O)CO", "note": "[(d), reference compound]", "values": [{"measurement": "Lipid hyperoxidation inhibition ratio (%)", "setting": "Rat Liver Microsome; [4]", "result": 45, "unit": "%"}]}
{"smiles": "CCCCCCCCCCCCC(=O)COC1=C(O)C(=O)O[C@@H]1[C@@H](O)CO", "note": "[Compound (Ia3), 3-O-dodecylcarbonylmethyl ascorbic acid]", "values": [{"measurement": "Lipid hyperoxidation inhibition ratio (%)", "setting": "Rat Liver Microsome; [5]", "result": 85, "unit": "%"}, {"measurement": "Lipid hyperoxidation inhibition ratio (%)", "setting": "Rat Liver Microsome; 10^-5 M, pH 7.4, 37° C., 20 minutes, versus solvent (DMF) alone, 10 µM, listed as Compound (IA3)", "result": 81, "unit": "%"}, {"measurement": "remaining at 24 h", "setting": "Stability Test", "result": "≥ 80", "unit": "%"}, {"measurement": "BUN amount (mean ± S.E.)", "setting": "[1]; 10 mg/kg", "result": "33.8 ± 6.1", "unit": "mg/dL"}, {"measurement": "Creatinine amount (mean ± S.E.)", "setting": "[1]; 10 mg/kg", "result": "0.93 ± 0.05", "unit": "mg/dL"}, {"measurement": "BUN amount (mean ± S.E.)", "setting": "[1]; 30 mg/kg", "result": "34.1 ± 8.9", "unit": "mg/dL"}, {"measurement": "Creatinine amount (mean ± S.E.)", "setting": "[1]; 30 mg/kg", "result": "1.04 ± 0.12", "unit": "mg/dL"}, {"measurement": "BUN amount versus vehicle group", "setting": "[1]; 10 or 30 mg/kg", "result": "significantly smaller"}, {"measurement": "creatinine amount versus vehicle group", "setting": "[1]; 10 or 30 mg/kg", "result": "significantly smaller"}, {"measurement": "GOT activity value", "setting": "CCl4 Liver Dysfunction; 100 mg/kg", "result": "significantly reduced"}, {"measurement": "GPT activity value", "setting": "CCl4 Liver Dysfunction; 100 mg/kg", "result": "significantly reduced"}, {"measurement": "GOT activity (mean ± S.E)", "setting": "CCl4 Liver Dysfunction; [6]", "result": "445.0 ± 69.0", "unit": "Unit/1"}, {"measurement": "GPT activity (mean ± S.E)", "setting": "CCl4 Liver Dysfunction; [6]", "result": "1,406.4 ± 185.2 Unit/1"}, {"measurement": "death during observation for one week", "setting": "Mouse; 30 mg/kg", "result": "no death was found"}, {"measurement": "death during observation for one week", "setting": "Mouse; 100 mg/kg", "result": "no death was found"}, {"measurement": "Survival rate (%)", "setting": "[2]; one hour before ligation, 24 hours after ligation-reperfusion of bilateral carotid arteries", "result": 80.0, "unit": "%"}, {"measurement": "survival rate versus vehicle group", "setting": "[2]; 24 hours after ligation-reperfusion", "result": "significantly higher"}, {"measurement": "Total time of arrhythmia occurrence (second) (mean + S.E.)", "setting": "[3]; i.v., 0.3 mg/kg, 2 minutes before coronary occlusion", "result": "471.0 ± 73.6", "unit": "s"}, {"measurement": "Total time of arrhythmia occurrence (second) (mean + S.E.)", "setting": "[3]; i.v., 1 mg/kg, 2 minutes before coronary occlusion", "result": "216.1 ± 59.6", "unit": "s"}, {"measurement": "Total time of arrhythmia occurrence (second) (mean + S.E.)", "setting": "[3]; i.v., 3 mg/kg, 2 minutes before coronary occlusion", "result": "273.5 ± 93.8", "unit": "s"}, {"measurement": "Total time of arrhythmia occurrence (second) (mean + S.E.)", "setting": "[3]; i.v., 10 mg/kg, 2 minutes before coronary occlusion", "result": "203.8 ± 91.0", "unit": "s"}, {"measurement": "Total time of arrhythmia occurrence (second) (mean + S.E.)", "setting": "[3]; i.v., 30 mg/kg, 2 minutes before coronary occlusion", "result": "150.5 ± 79.8", "unit": "s"}, {"measurement": "inhibition of occurrence of arrhythmia", "setting": "[3]; intravenously, not less than 1 mg/kg", "result": "same significant inhibition"}, {"measurement": "inhibition of occurrence of arrhythmia", "setting": "[3]; orally, not less than 10 mg/kg", "result": "same significant inhibition"}, {"measurement": "Total time of arrhythmia occurrence (second) (mean + S.E.)", "setting": "[3]; p.o., 10 mg/kg, 1 hour before coronary occlusion", "result": "378.2 ± 61.4", "unit": "s"}, {"measurement": "Total time of arrhythmia occurrence (second) (mean + S.E.)", "setting": "[3]; p.o., 30 mg/kg, 1 hour before coronary occlusion", "result": "313.3 ± 81.7", "unit": "s"}, {"measurement": "Total time of arrhythmia occurrence (second) (mean + S.E.)", "setting": "[3]; p.o., 100 mg/kg, 1 hour before coronary occlusion", "result": "85.4 ± 28.9", "unit": "s"}, {"measurement": "Total time of arrhythmia occurrence (second) (mean + S.E.)", "setting": "[3]; p.o., 300 mg/kg, 1 hour before coronary occlusion", "result": "123.6 ± 43.7", "unit": "s"}]}
{"smiles": "CCCCCCCCCCOC(=O)COC1=C(O)C(=O)O[C@@H]1[C@@H](O)CO", "note": "[Compound (IA5)]", "values": [{"measurement": "Lipid hyperoxidation inhibition ratio (%)", "setting": "Rat Liver Microsome; [5]", "result": 72, "unit": "%"}]}
{"smiles": "CCCCCCCCCCCCCCCCCCOC(=O)COC1=C(O)C(=O)O[C@@H]1[C@@H](O)CO", "note": "[Compound (IA6)]", "values": [{"measurement": "Lipid hyperoxidation inhibition ratio (%)", "setting": "Rat Liver Microsome; [5]", "result": 73, "unit": "%"}]}
{"smiles": "CCCCCCCCCCCCCCCCC(=O)COC1=C(O)C(=O)O[C@@H]1[C@@H](O)CO", "note": "[(b), reference compound]", "values": [{"measurement": "Lipid hyperoxidation inhibition ratio (%)", "setting": "Rat Liver Microsome; [4]", "result": 43, "unit": "%"}]}
{"smiles": "CCCCCCCCCCCCCCC(=O)COC1=C(O)C(=O)OC1C(O)CO", "note": "(centres unmarked) [Compound (Ia4)]", "values": [{"measurement": "Lipid hyperoxidation inhibition ratio (%)", "setting": "Rat Liver Microsome; [5]", "result": 65, "unit": "%"}]}
{"smiles": "CCCCCCCCOC1=C(O)C(=O)O[C@@H]1[C@@H](O)CO", "note": "[(c), reference compound]", "values": [{"measurement": "Lipid hyperoxidation inhibition ratio (%)", "setting": "Rat Liver Microsome; [4]", "result": 40, "unit": "%"}]}
{"smiles": "CCCCCCC(=O)COC1=C(O)C(=O)O[C@@H]1[C@@H](O)CO", "note": "[(a), reference compound]", "values": [{"measurement": "Lipid hyperoxidation inhibition ratio (%)", "setting": "Rat Liver Microsome; [4]", "result": 27, "unit": "%"}]}
